From patent publication US4146622A, “Aziridinyl quinone anti-transplanted tumor agents” (priority 1977, dated 1979)
≈ marks a conversion by molar mass, not a printed value. Where “and” joins values, the source holds several entries; their conditions need not be identical. Identical values can stand only once. Entries after “also recorded” stand apart in the source; their conditions may differ. Like-named read-outs stand apart in the source and are kept apart here.

How the values were obtained:
[1] = system: lymphoid leukemia L1210; conditions: L1210 system, prior/literature; cited from earlier work
[2] = system: lymphoid leukemia L1210; experiment: Intraperitoneal (IP) lymphoid leukemia L1210 transplanted mouse tumor test; type: in vivo, murine; conditions: for OD (optimum dose) / ILS (percentage increase in life span) / animals alive per 6 test animals on day of termination: Table VIII; for animals alive per 6 test animals on day of termination / survivors (number in parentheses) IP L1210: day 30; for ILS (%) IP L1210 / survivors (number in parentheses) IP L1210: Table XI; for ILS (%) IP L1210: outstanding activity; for survivors (number in parentheses) IP L1210: per 6 test animals
Description: ^(a) Day 1-9 treatment schedule (9 injections)
^(b) Day 1,5,9 treatment schedule (3 injections)
^(c) Day 1 only treatment schedule (1 injection)
^(f) Percentage increase in life span of treated animals [(treated
survival .div. control survival) × 100%] - 100%

[3] = system: P388 lymphocytic leukemia; experiment: Intraperitoneal (IP) lymphocytic leukemia P388 transplanted mouse tumor test; type: in vivo, murine; conditions: Table IX; for OD (optimum dose): IP P388, QD1-9; for ILS (percentage increase in life span): IP P388, QD1-9, at OD
[4] = system: B16 melanocarcinoma; experiment: Intraperitoneal B16 melanocarcinoma transplanted mouse tumor test; type: in vivo, murine; conditions: for OD (optimum dose) / ILS (percentage increase in life span): Table IX; for OD (optimum dose): B16, QD1-9; for ILS (percentage increase in life span): B16, QD1-9, at OD; for antitumor activity: B16 melanoma
Description: ^b Ip tumor implantation, ip QD1-9 treatment schedule.
The L1210, P388 and B16 test systems described in Table II utilize intraperitoneal (IP) tumor implantation and IP drug treatment while the Lewis lung system employs subcutaneous tumor implantation and IP treatment.
Aqueous saline solution (0.9%) was used as the drug vehicle. Normally, five doses were employed per experiment with the top dose chosen to produce toxicity. The lower doses were 50% of each preceeding dose.
Consistent with NCI antitumor test protocols, intraperitoneal (IP) administration of the drug was employed with all five tumor systems investigated. Tumor implantation was IP in the systems designated IP leukemia L1210 and P388 as well as B16 melanoma.

[5] = system: lymphoid leukemia L1210; experiment: Intracerebral (IC) lymphoid leukemia L1210 test; type: in vivo, murine; conditions: for antitumor activity: IC L1210; for OD (optimum dose) / ILS (percentage increase in life span): Table X; for ILS (%) IC L1210: Table XI, outstanding activity
[6] = system: ependymoblastoma; experiment: Intracerebral (IC) ependymoblastoma (EM) brain tumor test; type: in vivo, murine; conditions: for antitumor activity: IC ependymoblastoma (EM); for OD (optimum dose) / ILS (percentage increase in life span) / animals alive per 6 test animals on day of termination: Table X, IC ependymoblastoma; for OD (optimum dose): QD1-5; for ILS (percentage increase in life span) / animals alive per 6 test animals on day of termination: QD1-5, at OD; for animals alive per 6 test animals on day of termination / survivors (number in parentheses) EM: day 60; for survivors (number in parentheses) EM: Table XI, per 6 test animals
Description: ^c Ic tumor implantation, ip QD1-5 treatment schedule.
^g Number of animals alive per six test animals on day of termination
of experiment (day 99 for expt 133 and day 60 for expt 136 and 144).
A third IC transplanted mouse tumor model, the ependymoblastoma system, was also studied. This system requires intracerebral implantation of a solid tumor fragment while the IC L1210 and IC P388 systems utilize IC inoculated ascites tumor fluid. All three use IP drug treatment however. […] Cures (survivors from the group of six mice on the last day of the experiment) are indicated. Experiments 136 and 144 were terminated on day 60. Since the number of cures was about the same, the differences in T/C values in these two experiments reflect differences in the life span of the two different sets of control animals. Experiment 133 was terminated on day 99 with a resulting higher activity value.
The hydrophilic dihydroxypropylamino compound (No. 39), which was curative in the IP L1210 and P388 leukemia systems, was active but gave a large spread in ILS values (53-186%). […] Again, its hydrophilic character may present transport problems in this IC tumor system.

[7] = Room temperature water solubility; type: physicochemical
Protocol: In the following examples, all melting points are uncorrected and were recorded on a Thomas-Hoover capillary melting point apparatus. Elemental analyses were performed by NIAMDD, NIH, Bethesda, Maryland. Fluoranil, ethyleneimine and 2l -methylethyleneimine were obtained commerically. […] New compounds were identified by nmr and ir spectroscopy. In the tetraamino derivatives, the methylene protons of the aziridine rings usually occurred as a singlet at δ2.0-2.2 in CDCl3 or DMSO-d6. This absorption appeared at δ2.40 (CDCl3) for compound 11. Carbonyl absorption frequencies (nujol mull) occurred in the range 1620-1640 cm^-1 for the tetraamino compounds. Satisfactory elemental analyses (+0.4% of calculated values) are indicated by elemental symbols in Table VII. Room temperature water solubilities were determined by the incremental addition (pipet) of water to a weighed amount of compound with shaking. The solubility values in Table VII must be considered as approximate.

[8] = Octanol/H2O partition coefficient (log P); type: physicochemical; conditions: octanol/water; Table VII; octanol/H2O
Description: ^(b) Octanol/H2 O values determined by C. Hansch and M. Yamakawa

[9] = IP L1210, Day 1 only (1 injection)
[10] = IP L1210, Q4D(1,5,9) (3 injections)
[11] = water, Table VII, room temperature, approximate, read-out: Approx. H2O Sol.

CC(=O)NC1=C(N2CC2)C(=O)C(NC(C)=O)=C(N2CC2)C1=O [Compound 27]
antitumor activity, prior testing [1]: active; also recorded: intraperitoneal (IP) leukemia L1210 activity

CN(C)C1=C(N2CC2)C(=O)C(N(C)C)=C(N2CC2)C1=O [Compound 41, 2,5-Diaziridinyl-3,6-bis(dimethylamino)-1,4-benzoquinone]
OD (optimum dose) [2, 9]: 1.5 mg/kg/injection
ILS (percentage increase in life span) ([2]; IP L1210, Day 1 only, at OD): 21% and 15%
OD (optimum dose) [2, 10]: 3.0 mg/kg/injection
ILS (percentage increase in life span) ([2]; IP L1210, Q4D(1,5,9), at OD): 120% and 73%
animals alive per 6 test animals on day of termination ([2]; IP L1210, Q4D(1,5,9), at OD): 1
ILS (%) IP L1210 [2]: 120%
survivors (number in parentheses) IP L1210 [2]: 1
OD (optimum dose) [3]: 1.0 mg/kg/injection and 0.5 mg/kg/injection
ILS (percentage increase in life span) [3]: 74% and 37%
OD (optimum dose) [4]: 0.2 mg/kg/injection
ILS (percentage increase in life span) [4]: 16% and 12%
antitumor activity [5]: most active; also recorded: significant activity
OD (optimum dose) ([5]; IC L1210, Q4D(1,5,9)): 3.0 mg/kg/injection
ILS (percentage increase in life span) ([5]; IC L1210, Q4D(1,5,9), at OD): 72% and 56%
ILS (%) IC L1210 [5]: 72%
antitumor activity [6]: among the most active materials
OD (optimum dose) [6]: 1.0 mg/kg/injection and 0.5 mg/kg/injection
ILS (percentage increase in life span) [6]: 215% and 190%
animals alive per 6 test animals on day of termination [6]: 5 and 4
survivors (number in parentheses) EM [6]: 5
solubility [7]: increases the solubility greatly
solubility [7, 11]: 10000 µg/mL (≈ 36.2 mM)

CNC1=C(N2CC2)C(=O)C(NC)=C(N2CC2)C1=O [Compound 34]
OD (optimum dose) [2, 9]: 0.7 mg/kg/injection
OD (optimum dose) [2, 10]: 0.8 mg/kg/injection and 0.4 mg/kg/injection
OD (optimum dose) ([2]; IP L1210, QD1-9 (9 injections)): 0.2 mg/kg/injection
animals alive per 6 test animals on day of termination ([2]; IP L1210, QD1-9, at OD): 1
OD (optimum dose) [3]: 0.2 mg/kg/injection and 0.1 mg/kg/injection
ILS (percentage increase in life span) [3]: 95% and 69%
antitumor activity [4]: approached minimal reproducible activity
ILS (percentage increase in life span) [4]: 39% and 29%
antitumor activity [5]: most active; also recorded: significant activity
OD (optimum dose) ([5]; IC L1210, QD1-9): 0.4 mg/kg/injection and 0.2 mg/kg/injection
ILS (percentage increase in life span) ([5]; IC L1210, QD1-9, at OD): 68% and 60%
ILS (%) IC L1210 [5]: 68%
antitumor activity [6]: among the most active materials; also recorded: highly active
OD (optimum dose) [6]: 0.2 mg/kg/injection and 0.4 mg/kg/injection
ILS (percentage increase in life span) [6]: 219% and 218%
animals alive per 6 test animals on day of termination [6]: 5 and 4
survivors (number in parentheses) EM [6]: 5
solubility [7, 11]: < 100 µg/mL

COC1=C(Br)C(=O)C(OC)=C(Br)C1=O [Compound 14, 2,5-dibromo-3,6-dimethoxy-1,4-benzoquinone]
antitumor activity, prior testing [1]: inactive

O=C1C(Cl)=C(Cl)C(=O)C(Cl)=C1Cl [chloranil, tetrachlorobenzoquinone]
antitumor activity, prior testing [1]: inactive

CN(CCO)C1=C(N2CC2)C(=O)C(N(C)CCO)=C(N2CC2)C1=O [Compound 42]
OD (optimum dose) [2, 10]: 0.4 mg/kg/injection and 0.2 mg/kg/injection
OD (optimum dose) ([2]; IP L1210, QD1-9 (9 injections)): 1.5 mg/kg/injection
animals alive per 6 test animals on day of termination ([2]; IP L1210, QD1-9, at OD): 1
ILS (%) IP L1210 [2]: 114%
survivors (number in parentheses) IP L1210 [2]: 1
OD (optimum dose) [3]: 1.6 mg/kg/injection and 0.8 mg/kg/injection
ILS (percentage increase in life span) [3]: 162% and 145%
antitumor activity [4]: approached minimal reproducible activity
OD (optimum dose) [4]: 0.8 mg/kg/injection
ILS (percentage increase in life span) [4]: 47% and 31%
OD (optimum dose) ([5]; IC L1210, QD1-9): 4.0 mg/kg/injection and 2.0 mg/kg/injection
ILS (percentage increase in life span) ([5]; IC L1210, QD1-9, at OD): 45% and 32%
OD (optimum dose) [6]: 0.4 mg/kg/injection and 0.2 mg/kg/injection
ILS (percentage increase in life span) [6]: 84% and 69%
solubility [7, 11]: 60000 µg/mL (≈ 178 mM)
logP [8]: -0.38

NC1=C(Cl)C(=O)C(N)=C(Cl)C1=O [Compound 19]
antitumor activity, prior testing [1]: inactive
